From patent US20230414622A1, “PHARMACEUTICAL METHOTREXATE COMPOSITION” (Leopold MTX GmbH, priority 2020, published 2023) come the findings set out here.

Like-named read-outs stand apart in the source and are kept apart here.

The target in one data set is T1, TNF-α (Homo sapiens, UniProt P01375).
T1 construct: purchased Acrobiosystems, USA
In words: Microscale thermophoresis (MST) binding affinity to Cy5-labelled recombinant TNF-α. Particulars: for Kd: PBS pH 7.5, 25° C., mean of six independent test series. On the procedure:
(§1) In addition to thermodynamic stability, the binding affinity of the biopharmaceuticals in compositions according to the present invention was determined and compared with the binding affinity in corresponding reference compositions.
(§2) Binding studies were performed using microscale thermophoresis (MST) with the Monolith NT.115 device (NanoTemper Technologies, Munich, Germany).
(§3) For the MST measurements, 10 microliters each of the biopharmaceutical at a concentration of […] were mixed with 10 microliters each of a serial dilution of methotrexate disodium in PBS buffer pH 7.5 to prepare the compositions according to the invention. The final concentration of MTX in all samples was 55 micromoles per liter, while the concentration of the respective ligand ranged from 1.5 micromoles per liter to 25 millimoles per liter.
(§4) Samples were loaded into coated capillaries (NanoTemper Technologies) according to the manufacturer's instructions and fluorescence was recorded for 20 seconds at 100% laser power and 40% MST power. The temperature of the instrument was set at 25° C. for all measurements. After the recordal of MST time traces, the data were analyzed. The equilibrium dissociation constant (KD) was determined based on the change in normalized fluorescence as a function of the concentration of the corresponding ligand after 14 seconds of thermophoresis using MO affinity analysis software (NanoTemper Technologies).
(§5) The values shown are the arithmetic mean values from six independent test series in each case.

The target in a further data set is CD80. In words: Microscale thermophoresis (MST) binding affinity to Cy5-labelled recombinant CD80. The settings on record: for Kd: PBS pH 7.5, 25° C., mean of six independent test series. As to the method: as §1, §2
Recombinant TNF-α, CD20, and CD80 (Acrobiosystems, USA) were labeled for MST measurements using the fluorescent dye Cy5 (Thermo Fisher Scientific, Germany) according to the manufacturer's instructions. The concentration of the recombinant proteins was measured after labeling using a UV-Vis spectrophotometer, and a labeling efficiency of 80 was determined.
as §3, §4, §5

Data set [1] is described as follows: Thermal unfolding profiles (Tycho NT.6 fluorimeter): temperature stability of the biologic with or without MTX. Type of data set: physicochemical. An excerpt:
To prepare the compositions according to the invention, the biologics were combined with methotrexate disodium at concentrations of 25 milligrams per milliliter, 16.6 milligrams per milliliter, 10.0 milligrams per milliliter, 7.14 milligrams per milliliter, and 5.0 milligrams per milliliter, respectively. Phosphate buffered saline (PBS buffer) pH 7.5 was used as the solvent. As reference composition in each case served the biopharmaceutical in equivalent concentration in PBS buffer pH 7.5 without the addition of methotrexate disodium.
In each case, the above-noted concentrations were the final concentration of the biopharmaceutical or the methotrexate in the pharmaceutical composition.
After 20 days of incubation, the compositions were measured using a Tycho NT.6 fluorimeter (NanoTemper Technologies, Munich, Germany) according to the manufacturer's instructions to determine the thermal unfolding profiles of the biologics.
The inflection point of each curve indicates the denaturation temperature of the biopharmaceutical in the composition.

The target in data set [2] is T2, Recombinant CD20 (Acrobiosystems), Cy5-labelled (UniProt P11836 1-297, limits assumed, labelled with fluorescent dye Cy5 (site not stated)).
T2 construct: Bought recombinant protein; construct not described; also called B-lymphocyte antigen CD20
T2 sequence (looked up): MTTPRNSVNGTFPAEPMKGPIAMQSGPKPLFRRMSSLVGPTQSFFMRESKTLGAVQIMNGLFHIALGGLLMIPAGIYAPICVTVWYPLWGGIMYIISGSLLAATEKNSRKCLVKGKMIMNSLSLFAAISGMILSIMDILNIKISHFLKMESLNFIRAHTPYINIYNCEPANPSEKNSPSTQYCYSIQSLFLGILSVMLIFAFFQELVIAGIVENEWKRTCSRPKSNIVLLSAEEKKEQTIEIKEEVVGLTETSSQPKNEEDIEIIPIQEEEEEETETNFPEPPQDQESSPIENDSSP
In words: microscale thermophoresis; KD with MTX against the reference without MTX.

The target of data set [3] is T2, Recombinant CD20 (Acrobiosystems), …. In words: microscale thermophoresis, Cy5-labelled CD20, PBS pH 7.5, 25 °C, reference without MTX; mean of six series.
For data set [4] the target is unchanged. In words: microscale thermophoresis, Cy5-labelled CD20, PBS pH 7.5, 25 °C, with methotrexate disodium; mean of six series.
Setting [5] is: MTX 55 micromoles per liter, read-out: KD with MTX.
The mark [6] stands for this setting: read-out: KD without MTX (reference).

T1 sequence (P01375 77-233 limits assumed): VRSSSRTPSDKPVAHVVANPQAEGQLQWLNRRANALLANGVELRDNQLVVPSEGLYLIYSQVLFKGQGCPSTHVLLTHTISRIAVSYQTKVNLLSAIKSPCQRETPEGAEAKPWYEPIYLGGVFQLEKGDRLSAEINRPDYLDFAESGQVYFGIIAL
CD80, sequence (P33681 35-288): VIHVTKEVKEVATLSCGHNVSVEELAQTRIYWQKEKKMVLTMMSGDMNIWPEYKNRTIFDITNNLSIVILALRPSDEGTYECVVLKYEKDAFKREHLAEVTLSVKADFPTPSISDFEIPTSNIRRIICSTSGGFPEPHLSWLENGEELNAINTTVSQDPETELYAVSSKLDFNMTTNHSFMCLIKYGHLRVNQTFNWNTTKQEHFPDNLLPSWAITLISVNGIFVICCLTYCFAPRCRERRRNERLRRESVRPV

Adalimumab: the Kd came to 0.14 nM on TNF-α (setting [5]) and 0.147 nM on TNF-α (setting [6]). Also, the “binding affinity / binding strength in composition with MTX compared to control without MTX” value on TNF-α (in words, the b130 statement covers all tested ligands (TNF-α, CD20, CD80)) was “higher binding affinity”. Also, the “Relative increase in binding strength” value at TNF-α (with MTX vs without MTX) turned out to be 5%.
Consider “Rituximab: biologic that specifically binds B-lymphocyte antigen CD20 (trade names: MabThera, Rituxan)”, for which the Kd at CD80 (setting [5]) stood at 6.8 nM; at CD80 (setting [6]), 11.3 nM. The “Relative increase in binding strength” value in the data set with CD80 (with MTX vs without MTX) was 66%.
For the molecule Etanercept, the “temperature stability in composition with MTX” value in data set [1] (MTX 5 milligrams per milliliter, PBS pH 7.5, 20 days of incubation) was found to be 74.3 °C. For the same molecule, in data set [1] (PBS buffer pH 7.5, without MTX, after 20 days of incubation), the “denaturation temperature / temperature stability in reference composition without MTX” value is 73.9 °C. Besides, the results for the Kd on TNF-α (setting [5]) and on TNF-α (setting [6]) were 0.005 nM and 0.0116 nM, respectively.

B1: Rituximab (MabThera) (antibody, V domains shown)
VH: QVQLQQPGAELVKPGASVKMSCKASGYTFTSYNMHWVKQTPGRGLEWIGAIYPGNGDTSYNQKFKGKATLTADKSSSTAYMQLSSLTSEDSAVYYCARSTYYGGDWYFNVWGAGTTVTVSA
VL: QIVLSQSPAILSASPGEKVTMTCRASSSVSYIHWFQQKPGSSPKPWIYATSNLASGVPVRFSGSGSGTSYSLTISRVEAEDAATYYCQQWTSNPPTFGGGTKLEIK
For the molecule B1, the “Relative increase in binding strength” value in data set [2] is 66%. For the same molecule, the Kd was determined as 11.3 nM in data set [3] and 6.8 nM in data set [4].
